Test results: patent US5691307A, “O^6 -substituted guanine compositions and methods for depleting O^6” (The United States of America as represented by the …, priority 1994, dated 1997)
Like-named read-outs stand apart in the source and are kept apart here.

Tests used:
[1] = system: AGT; assay: AGT depletion (general statements)
[2] = background; agents under development; cited from earlier work
[3] = system: prostate tumors; conditions: rats bearing prostate tumors; O^6-benzylguanine one hour prior to BCNU, or BCNU alone at equal dose; cited from earlier work
[4] = molecular target: T1, alkyltransferase (AGT), HT29 cells (Homo sapiens, UniProt P16455); assay: AGT depletion/inactivation in intact HT29 cells; format: cell-based
T1 construct: human colon tumor cells HT29 and intact HT29 cells; endogenous in cells; host or cells: HT29 human colon tumor cells, intact
T1 sequence (P16455 1-207): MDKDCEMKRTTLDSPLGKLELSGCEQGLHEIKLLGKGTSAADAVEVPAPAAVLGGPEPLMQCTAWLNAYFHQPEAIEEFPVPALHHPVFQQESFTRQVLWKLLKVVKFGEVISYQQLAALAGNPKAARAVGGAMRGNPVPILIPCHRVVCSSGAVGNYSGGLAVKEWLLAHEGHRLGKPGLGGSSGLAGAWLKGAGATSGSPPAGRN
Protocol: After four hours, cells were harvested and frozen at -80° C. until analysis for AGT.

[5] = molecular target: T2, alkyltransferase (AGT), HT29 cell-free extract (Homo sapiens, UniProt P16455); assay: biochemical
T2 sequence (P16455 1-207): T1 sequence (P16455 1-207)

[6] = Conversion to O^6-benzylguanine / stability in vitro and in cell cultures; format: in vitro ADME
[7] = Stability in alkaline solution (UV at pH 13); format: physicochemical; conditions: pH 13, UV measurement
Protocol: The reaction mixture was stirred at 0° C. for 30 min at which time the ice bath was removed and the reaction was allowed to proceed overnight at room temperature. At this point, a water-ice mixture (~5 ml) was added to the flask with vigorous stirring for 5 minutes.

[8] = system: AGT; conditions: cited from earlier work; for AGT depletion (shown previously): literature
[9] = system: tumor cells; conditions: cited from earlier work
[10] = system: pancreatic tumors; conditions: background; cited from earlier work
[11] = system: pancreatic beta cells; conditions: cited from earlier work
[12] = system: malignant melanomas, brain tumors and mycosis fungoides; conditions: background; cited from earlier work
[13] = system: active melanin producing cells such as melanoma cells; conditions: cited from earlier work
[14] = HT29 cells, 4 h incubation, 50% inactivation (Table 2), read-out: ED50 In cells
[15] = HT29 cell-free extract, 30 min incubation, 50% inactivation (Table 2), read-out: ED50 In cell-free extract

Nc1nc(OCc2ccccc2)c2ncn(CC(=O)[O-])c2n1.[Na+]
AGT depletion characteristics [1]: exhibit AGT depletion characteristics

O=NN(CCCl)C(=O)NCCO [1-(2-chloroethyl)-3-(2-hydroxyethyl)-1-nitrosourea]
side effects [2]: fewer side effects

O=NN(CCCl)C(=O)NCCCl [BCNU, 1,3-bis(2-chloroethyl)-1-nitrosourea]
regression in tumor growth [3]: not observed

CS(=O)(=O)CS(=O)(=O)OCCCl [Clomesone, 2-chloroethylmethylsulfonylmethanesulfonate]
side effects [2]: fewer side effects

CCOC(=O)Cn1cnc2c(OCc3ccccc3)nc(N)nc21 [Example 3b, 2-Amino-6-benzyloxy-9-carboethoxymethylpurine]
IC50 [4, 14]: 3 µM
IC50 [5, 15]: 30 µM
AGT depletion characteristics [1]: exhibit AGT depletion characteristics

NC(=O)Cn1cnc2c(OCc3ccccc3)nc(N)nc21 [Example 4b, 2-Amino-6-benzyloxy-9-carbamoylmethylpurine]
AGT depletion characteristics [1]: exhibit AGT depletion characteristics

CCC(O)Cn1cnc2c(OCc3ccccc3)nc(N)nc21 (stereo not shown) [Example 5b, 2-Amino-6-benzyloxy-9-(2-hydroxybutyl)purine]
AGT depletion characteristics [1]: exhibit AGT depletion characteristics

N#CCn1cnc2c(OCc3ccccc3)nc(N)nc21 [Example 6b, 2-Amino-6-benzyloxy-9-cyanomethylpurine]
AGT depletion characteristics [1]: exhibit AGT depletion characteristics

CC(C)(C)C(=O)OCn1cnc2c(OCc3ccccc3)nc(N)nc21 [Example 7, 2-Amino-6-benzyloxy-9-pivaloyloxymethylpurine]
conversion by esterases in cell cultures ([6]; cell cultures): Converted to O^6benzylguanine by esterases in cell cultures
stability in vitro ([6]; in vitro): stable in vitro

CC(=O)OC[C@H]1OC(OC(C)=O)[C@H](NC(=O)Cn2cnc3c(OCc4ccccc4)nc(N)nc32)[C@@H](OC(C)=O)[C@@H]1OC(C)=O (stereo partly drawn) [Example 8, 2-Amino-6-benzyloxy-9-{N-[2-deoxy-2-(1,3,4,6-tetra-O-acetyl)-D-glucopyranosyl]carbamoylmethyl}purine]
AGT depletion characteristics [1]: exhibit AGT depletion characteristics

CC(=O)n1cnc2c(OCc3ccccc3)nc(N)nc21 [Example 13, 9-Acetyl-O^6-benzylguanine]
conversion by hydrolysis ([6]; in vitro and in cultures): Converted to O^6benzylguanine by hydrolysis
decomposition at pH 13 [7]: decomposes to O^6 -benzylguanine

C[C@]12CC[C@H]3[C@@H](CCC4=CC(=O)CC[C@@]43C)[C@@H]1CC[C@@H]2OC(=O)Cn1cnc2c(OCc3ccccc3)nc(N)nc21 [Example 20, O^6 -Benzyl-9-(4-androsten-3-one-17β-oxycarbonylmethyl) guanine]
IC50 [4]: 0.5 µM
IC50 [5]: 5 µM

C[C@]12CCC(=O)C[C@@H]1CC[C@@H]1[C@@H]2CC[C@]2(C)[C@@H](OC(=O)Cn3cnc4c(OCc5ccccc5)nc(N)nc43)CC[C@@H]12 [Example 22, O^6 -Benzyl-9-(5α-androstan-3-one-17β-oxycarbonylmethyl) guanine]
IC50 [4]: 0.5 µM
IC50 [5]: 4 µM

CCOP(=O)(OCC)C(C)NC(=O)N(CCCl)N=O (stereo not shown) [Fotemustine, 1-[N-(2-chloroethyl)-N-nitrosoureido]ethylphosphonic acid diethyl ester]
side effects [2]: fewer side effects

Nc1nc(OCc2ccc(Cl)cc2)c2nc[nH]c2n1 [O^6 -(p-chlorobenzyl)guanine, O^6 -(p-chlorobenzyl) guanine]
potency as AGT depleter [8]: more potent
AGT depletion (shown previously) [8]: effective in depleting AGT
enhancement in the cytotoxic response to alkylating agents [9]: enhancement in the cytotoxic response to chemotherapeutic alkylating agents
IC50 [4, 14]: 0.08 µM
IC50 [5, 15]: 0.2 µM

Nc1nc(OCc2ccc(Cl)cc2)c2ncn([C@@H]3O[C@H](CO)[C@@H](O)[C@H]3O)c2n1 [O^6 -(p-chlorobenzyl)guanosine]
AGT depletion (shown previously) [8]: effective in depleting AGT
IC50 [4, 14]: 5 µM
IC50 [5, 15]: 10 µM

Nc1nc(OCc2ccc(F)cc2)c2nc[nH]c2n1 [O^6 -(p-fluorobenzyl)guanine, O^6 -(p-fluorobenzyl) guanine]
AGT depletion (shown previously) [8]: effective in depleting AGT
IC50 [5, 15]: 0.2 µM

Cc1ccc(COc2nc(N)nc3nc[nH]c23)cc1 [O^6 -(p-methylbenzyl)guanine]
potency as AGT depleter [8]: more potent
AGT depletion (shown previously) [8]: effective in depleting AGT
enhancement in the cytotoxic response to alkylating agents [9]: enhancement in the cytotoxic response to chemotherapeutic alkylating agents
IC50 [4, 14]: 0.08 µM
IC50 [5, 15]: 0.2 µM

Cc1ccc(COc2nc(N)nc3c2ncn3[C@@H]2O[C@H](CO)[C@@H](O)[C@H]2O)cc1 [O^6 -(p-methylbenzyl)guanosine, O^6 - (p-methylbenzyl)guanosine]
AGT depletion (shown previously) [8]: effective in depleting AGT
IC50 [4, 14]: 3 µM
IC50 [5, 15]: 9 µM

C=CCOc1nc(N)nc2nc[nH]c12 [O^6 -allylguanine, O^6 -Allylguanine]
IC50 [4]: 4 µM
IC50 [5]: 20 µM

Nc1nc(OCc2ccccc2)c2ncn([C@@H]3O[C@H](CO)[C@@H](O)[C@H]3O)c2n1 [O^6 -benzylguanosine]
AGT depletion (shown previously) [8]: effective in depleting AGT
IC50 [4, 14]: 2 µM
IC50 [5, 15]: 11 µM

COc1nc(N)nc2nc[nH]c12 [O^6 -methylguanine]
potency as AGT depleter [8]: weak
enhancement in the cytotoxic response to alkylating agents [9]: enhancement in the cytotoxic response to chemotherapeutic alkylating agents
IC50 [4, 14]: 120 µM
IC50 [5, 15]: 350 µM

Nc1nc(OCc2ccccc2)c2ncn([C@H]3C[C@H](O)[C@@H](CO)O3)c2n1 [O^6-benzyl-2'-deoxyguanosine]
AGT depletion (shown previously) [8]: effective in depleting AGT
IC50 [4, 14]: 0.5 µM
IC50 [5, 15]: 2 µM

CN(N=O)C(=O)N[C@H]1C(O)O[C@H](CO)[C@@H](O)[C@@H]1O (stereo partly drawn) [Streptozotocin, 2-deoxy-2-(3-methyl-3-nitrosoureido)-D-glucopyranose]
effectiveness against pancreatic tumors [10]: effective
selective destruction of pancreatic beta cells [11]: selectively destructive to pancreatic beta cells

Cn1nnc2c(C(N)=O)ncn2c1=O [Temozolomide, 8-carbamoyl-3-methylimidazo[5,1-d]-1,2,3,5-tetrazin-4-(3H)-one]
activity against malignant melanomas, brain tumors and mycosis fungoides [12]: active

O=c1cc[nH]c(=S)[nH]1 [Thiouracil]
accumulation in active melanin producing cells [13]: accumulates readily in active melanin producing cells such as melanoma cells

Nc1nc(OCc2ccccc2)c2ncn(CC(=O)[O-])c2n1.[Na+] [sodium salt]
IC50 [5, 15]: 157 µM
